Test results: PMC3850452, “Glycolic acid production in the engineered yeasts Saccharomyces cerevisiae and Kluyveromyces lactis” (Microbial Cell Factories, 2013)

Assays:
[1] = biological target: T1, GLYR1 (Arabidopsis thaliana, UniProt Q9LSV0); assay: NADPH consumption at […] nm, Michaelis-Menten fit; type: biochemical; settings: crude extract of overexpressing yeast; 200 μM NADPH; 50 mM sodium phosphate pH 7; 30 °C
T1 construct: full-length gene codon optimised for yeast, TPI1 promoter multicopy plasmid (p2159/pYX212), expressed in S. cerevisiae; crude cell extract, no tag told
T1 sequence (Q9LSV0 1-289): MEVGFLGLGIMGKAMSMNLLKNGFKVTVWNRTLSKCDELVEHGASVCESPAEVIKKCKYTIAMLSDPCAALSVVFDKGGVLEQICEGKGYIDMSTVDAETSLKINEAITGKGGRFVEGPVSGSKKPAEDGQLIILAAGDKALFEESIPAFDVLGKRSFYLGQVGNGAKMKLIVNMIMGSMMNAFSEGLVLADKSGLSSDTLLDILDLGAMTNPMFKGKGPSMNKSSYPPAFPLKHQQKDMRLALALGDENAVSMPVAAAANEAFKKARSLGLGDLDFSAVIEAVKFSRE

[2] = substrate: O=CC(=O)O; assay: cells, lysate or membranes; type: biochemical, Saccharomyces cerevisiae; settings: crude extract of overexpressing yeast, 200 μM NADPH, 50 mM sodium phosphate pH 7, 30 °C

Q: How did the Km [1] turn out when `O=CC(=O)O` [glyoxylic acid] was run?
A: 38.8 µM

B1: Gor1p (Saccharomyces cerevisiae S288C) (protein)
chain: MSKKPIVLKLGKDAFGDQAWGELEKIADVITIPESTTREQFLREVKDPQNKLSQVQVITRTARSVKNTGRFDEELALALPSSVVAVCHTGAGYDQIDVEPFKKRHIQVANVPDLVSNATADTHVFLLLGALRNFGIGNRRLIEGNWPEAGPACGSPFGYDPEGKTVGILGLGRIGRCILERLKPFGFENFIYHNRHQLPSEEEHGCEYVGFEEFLKRSDIVSVNVPLNHNTHHLINAETIEKMKDGVVIVNTARGAVIDEQAMTDALRSGKIRSAGLDVFEYEPKISKELLSMSQVLGLPHMGTHSVETRKKMEELVVENAKNVILTGKVLTIVPELQNEDWPNESKPLV
notes: endogenous gene overexpressed from multicopy plasmid in S. cerevisiae; crude cell extract, no tag told
Q: How did the Km [2] turn out when B1 was run?
A: 1.9 mM
